Positions of bridges follow the written chain, without caps; N, C: chain ends. Residues, ends and D or L forms follow the SMILES beside them. Chains are numbered I, II in the order given.
Assays:
[1] = test system: P. aeruginosa DR4877/07; type: cell-based; details: for Fractional inhibitory concentration of peptide/PMB, combination with Chloarm / Fractional inhibitory concentration of peptide/PMB, combination with Erythro / Fractional inhibitory concentration of peptide/PMB, combination with Levo / Fractional inhibitory concentration of peptide/PMB, combination with Tobra: first number in parenthesis; for Fractional inhibitory concentration of antibiotic, Chloarm combination / Fractional inhibitory concentration of antibiotic, Erythro combination / Fractional inhibitory concentration of antibiotic, Levo combination / Fractional inhibitory concentration of antibiotic, Tobra combination: second number in parenthesis
Experimental: (§1) The synergism between peptides with conventional antibiotics was evaluated using checkerboard assays. For a comparison polymyxin B (PMB) was also tested against each antibiotic. From their stock solutions, two-fold dilutions of each antibiotic and peptide to 1× MIC were prepared in MHB. 50 μl of each peptide concentration was added into the wells of a 96-well polystyrene plates (SPL Life Sciences Co. Ltd, Korea) in a horizontal orientation and the same volume of each antibiotic concentration were then added in a vertical orientation. Bacterial suspensions were prepared in MHB to yield final cell density of ~10^6 CFU/ml and 100 μl of bacterial suspension was mixed with each peptide-antibiotic combinations. This procedure was repeated for wells containing 200 μl of peptide alone and 200 μl of antibiotic alone in various concentrations. The positive and negative controls contained 200 μl of inoculum and MHB alone respectively. The plates were incubated at 37 °C for 24 hours and the optical density at 600 nm (OD600) was monitored as before. Fractional inhibitory concentration index (FICI) for all antibiotic- peptide combinations was calculated through the summation of (MIC of peptide in the combination/ MIC of peptide alone) and (MIC of antibiotics in combination/MIC of antibiotic alone). The experiments were performed in two independent duplicates and the combinations that gave the lowest FICI values was reported.

[2] = test system: P. aeruginosa ATCC 27853; type: cell-based; details: ATCC 27853; for Fractional inhibitory concentration of peptide/PMB, combination with Genta: first number in parenthesis; for Fractional inhibitory concentration of antibiotic, Genta combination: second number in parenthesis
Experimental: as §1

[3] = test system: P. aeruginosa ATCC 9027; assay: Outer membrane permeability assay (NPN); type: cell-based; details: no unit in table; Fig. S5 axis [Peptide], μM; 10 μM NPN, 5 mM HEPES pH 7.4, ex 355/em 405 nm; average of two titrations; read-out: PC50 (peptide concentration for half-maximal NPN intensity, OM permeability)
Experimental: The ability of each peptide to permeabilize the OM of Gram-negative organisms was determined using the hydrophobic fluorescent probe 1-N-phenylnaphthylamine (NPN) as previously reported. P. aeruginosa ATCC 9027 cells from an overnight MHB culture were harvested after centrifuging at 3000 rpm for 10 minutes. The pellet was washed twice, suspended in 5 mM HEPES (N- 2-hydroxyethylpiperazine-N’-2 ethanesulfonic acid) buffer (pH 7.4) and adjusted to an OD600 of 0.200. A suspension containing 600 μl of bacteria cells and 1 μl of a concentrated stock solution of NPN was mixed into a 10 mm stirred quartz cuvette so that the final concentration of the probe remained 10 μM. Aliquots containing 1 μl of each peptide in various concentrations (100, 50, 25, 15, 10, 5, 2.5 and 1 μg/ml) were added upon NPN dye stabilization. The fluorescence intensity was monitored using a Quanta Master spectrophotometer with a constant slit width of 0.5 nm, excitation and emission wavelengths set at 355 nm and 405 nm respectively. The peptide concentration required for half-maximal intensity (PC50) was determined by sigmoidal curve fitting using Graphpad Prism software. The experimental data is average of two independent titration experiments.

[4] = test system: LPS (E. coli serotype 055:B5); assay: BODIPY TR cadaverine (BC) displacement assay with LPS; type: binding; details: no unit in table; ED50 values in μM; 5 mM HEPES pH 7.4; duplicates; read-out: BC50 (LPS binding)
Description: To investigate the interaction of B2088 with LPS, we performed the BODIPY TR cadaverine (BC) displacement assay reported by Wood et al.[22]. The probe binds to the lipid A part of the LPS with moderate affinity and can be displaced by putative LPS-binding molecules. The method was used to probe the affinity of polycationic molecules and LPS binding proteins. First, we determined the affinity of polymyxin B (PMB), a lipopeptide cyclic antibiotic which has a high affinity for LPS. […] Figure 1a,b show the concentration-dependent displacement of LPS/lipid A-bound BC upon addition of B2088. […] To confirm the importance of branching, we determined the BC50 for a linear retrodimer having the amino acid sequence, […] (Fig. 1d). The determined value was 2-fold higher (3.9 ± 0.1 μM) than that of B2088, confirming a weaker affinity of the linear peptide.
The BC displacement assay was used to determine the ability of each peptide to bind to LPS. The florescent probe, BODIPY TR cadaverine (BC) was purchased from Molecular Probes/ Invitrogen (USA). A stock solution containing 1 mg/ml of LPS (E. coli serotype 055:B5) was prepared in dimethyl sulfoxide (DMSO) and another stock solution containing 1 mg/ml of BC dye was prepared in 5 mM HEPES buffer (pH 7.4). The optimum saturation concentration of BC:LPS ratio was standardized following the protocol provided by Wood et al. (22). From the BC stock, 240 μl was mixed with 500 μl from the LPS stock solution in 5 mM HEPES buffer (pH 7.4) to prepare 20 ml of BC:LPS mixture. Two-fold serial dilutions of each peptide in 5 mM HEPES buffer (pH 7.4) was prepared from their 1 mg/ml stock solutions to obtain a final range of 0.02–25.6 μM. The BC:LPS mixture was added to 100 μl of each peptide congener in a 1:1 ratio in each well of a 96-well black Costar™ polystyrene microtitre plate (Corning Incorporated, NY, USA). The maximum fluorescence intensity (Fmax) was determined using a mixture containing 100 μl PMB (50 μg/ml) and 100 μl BC:LPS solution, as PMB is considered the ‘gold standard’ for LPS-sequestering agents. The minimum fluorescence intensity (F0) was measured using 200 μl of BC:LPS mixture to determine the background noise for this experiment. Fluorescence measurements for each peptide (F) were determined using a microplate reader (Model: TECAN Infinite 200, Austria) with excitation and emission wavelengths set at 580 nm and 620 nm respectively. The percentage of BC displacement was then calculated using the formula: […]
The experiments were performed in duplicates and the effective concentration required for 50% displacement of BC dye (ED50) from LPS with respect to PMB was determined by curve fitting using Graphpad Prism (CA, USA). A higher ED50 value for the peptide indicates a lower affinity for LPS.

[5] = test system: K. pneumonia 4299; assay: microbe, parasite or virus in culture; type: cell-based, K. pneumoniae; details: 24 h
Experimental: (§2) MIC of each peptide was determined using the microdilution method in a 96 well microtitre plates (SPL Life Sciences Co., Ltd, Korea). Two-fold serial dilutions of each peptide in Mueller-Hinton Broth (MHB) was prepared from a 1 mg/ml stock solution of the peptide in the same broth, to obtain a final concentration in the range of 0.0976–50 μg/ml in each well. Bacterial suspensions (P. aeruginosa ATCC 27853, P. aeruginosa 4877, P. aeruginosa 23155, K. pneumoniae ATCC 10031 and K. pneumoniae 4299) were prepared by suspending the overnight cultured bacteria in saline and adjusting the inoculum to ~10^8 colony forming units (CFU) per ml. A further 150-fold dilution was then prepared in MHB to achieve a final cell density of 10^5–10^6 CFU/ml. In each well, 100 μl of inoculum was mixed with the equal volume of peptides at their 2× concentration. Positive and negative controls contained 200 μl of inoculum (without any peptide) and broth alone (no peptide/inoculum) respectively. Another negative control in which MHB containing 200 μl of peptide alone in its highest concentration tested (50 μg/ml) was also included to ensure that the optical density measured in the test wells was not due to turbidity of the peptides in solution. The 96 well polystyrene plates were then incubated at 37 °C for 24 h and the optical density at 600 nm (OD600) was measured every 30 min continuously using a TECAN microplate reader (TECAN Infinite 200, Austria). All the experiments were performed in two independent duplicates and the MIC was determined as the lowest peptide concentration in which no visible growth was observed.

[6] = test system: K. pneumoniae ATCC10031; type: cell-based; details: ATCC10031, 24 h
Experimental: as §2

[7] = test system: P. aeruginosa 23155; type: cell-based; details: 23155, 24 h
Experimental: as §2

[8] = test system: P. aeruginosa ATCC 27853; assay: microbe, parasite or virus in culture; type: cell-based; details: ATCC 27853, 24 h
Experimental: as §2

Row | SMILES | Fractional inhibitory concentration of peptide/PMB, combination with Chloarm [1] | Fractional inhibitory concentration of peptide/PMB, combination with Erythro [1] | Fractional inhibitory concentration of peptide/PMB, combination with Levo [1] | Fractional inhibitory concentration of peptide/PMB, combination with Tobra [1] | Fractional inhibitory concentration of antibiotic, Chloarm combination [1] | Fractional inhibitory concentration of antibiotic, Erythro combination [1] | Fractional inhibitory concentration of antibiotic, Levo combination [1] | Fractional inhibitory concentration of antibiotic, Tobra combination [1] | Fractional inhibitory concentration of peptide/PMB, combination with Genta [2] | Fractional inhibitory concentration of antibiotic, Genta combination [2] | EC50 [3] [µM] | EC50 [4] [µM] | Minimum Inhibitory Concentration against K. pneumonia 4299 [5] [µM] | Minimum Inhibitory Concentration against K. pneumoniae ATCC10031 [6] [µM] | Minimum Inhibitory Concentration against P. aeruginosa 23155 [7] [µM] | Minimum Inhibitory Concentration against P. aeruginosa ATCC 27853 [8] [µM]
1 | C[C@H](NC(=O)[C@H](C)NC(=O)[C@H](CCCCN)NC(=O)[C@H](CCCNC(=N)N)NC(=O)CNC(=O)[C@@H](N)CCCNC(=N)N)C(=O)N[C@@H](CCCNC(=N)N)C(=O)N[C@@H](CCCNC(=N)N)C(=O)NCCCC[C@H](NC(=O)[C@H](CCCNC(=N)N)NC(=O)[C@H](CCCNC(=N)N)NC(=O)[C@H](C)NC(=O)[C@H](C)NC(=O)[C@H](CCCCN)NC(=O)[C@H](CCCNC(=N)N)NC(=O)CNC(=O)[C@@H](N)CCCNC(=N)N)C(=O)N[C@@H](CCCCN)C(=O)O (I: H-RGRKAARRKK-OH / II: H-RGRKAARR; amide I:9-II:C; N-terminus and C-terminus assumed) | 0.5 | (0.5,0.5) | 0.5 | 0.5 | 0.13 | (0.5,0.5) | 0.25 | 0.25 | 0.5 | 0.06 | 21.7 ± 0.8 | 2.1 ± 0.2 | 23 | 11.5 | 11.5 | 11.5
2 | N=C(N)NCCC[C@H](NC(=O)CNC(=O)[C@@H](N)CCCNC(=N)N)C(=O)N[C@@H](CCCCN)C(=O)N[C@@H](Cc1ccccc1)C(=O)N[C@@H](Cc1ccccc1)C(=O)N[C@@H](CCCNC(=N)N)C(=O)N[C@@H](CCCNC(=N)N)C(=O)NCCCC[C@H](NC(=O)[C@H](CCCNC(=N)N)NC(=O)[C@H](CCCNC(=N)N)NC(=O)[C@H](Cc1ccccc1)NC(=O)[C@H](Cc1ccccc1)NC(=O)[C@H](CCCCN)NC(=O)[C@H](CCCNC(=N)N)NC(=O)CNC(=O)[C@@H](N)CCCNC(=N)N)C(=O)N[C@@H](CCCCN)C(=O)O (I: H-RGRKFFRRKK-OH / II: H-RGRKFFRR; amide I:9-II:C; N-terminus and C-terminus assumed) | 0.25 | (0.5,0.5) | (0.5,0.5) | 0.25 | 0.13 | (0.5,0.5) | (0.5,0.5) | 0.06 | (0.25,0.25) | (0.25,0.25) | 10 ± 0.3 | 0.93 ± 0.01 | 10.1 | 5.0 | 5.0 | 5.0
3 | CC[C@H](C)[C@H](NC(=O)[C@H](CCCCN)NC(=O)[C@H](CCCNC(=N)N)NC(=O)CNC(=O)[C@@H](N)CCCNC(=N)N)C(=O)N[C@H](C(=O)N[C@@H](CCCNC(=N)N)C(=O)N[C@@H](CCCNC(=N)N)C(=O)NCCCC[C@H](NC(=O)[C@H](CCCNC(=N)N)NC(=O)[C@H](CCCNC(=N)N)NC(=O)[C@@H](NC(=O)[C@@H](NC(=O)[C@H](CCCCN)NC(=O)[C@H](CCCNC(=N)N)NC(=O)CNC(=O)[C@@H](N)CCCNC(=N)N)[C@@H](C)CC)[C@@H](C)CC)C(=O)N[C@@H](CCCCN)C(=O)O)[C@@H](C)CC (I: H-RGRKIIRRKK-OH / II: H-RGRKIIRR; amide I:9-II:C; N-terminus and C-terminus assumed) | 0.5 | (0.5,0.5) | 0.5 | 0.5 | 0.25 | (0.5,0.5) | 0.13 | 0.06 | 0.5 | 0.01 | 17 ± 0.2 | 1.44 ± 0.02 | 5.3 | 2.7 | 5.3 | 2.7

From publication PMC4865820, “Branched Peptide, B2088, Disrupts the Supramolecular Organization of Lipopolysaccharides and Sensitizes the Gram-negative Bacteria” (Scientific Reports, 2016)
